Reference: ChEMBL document CHEMBL1201862, “PubChem BioAssay data set” (2004)
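Test compounds were applied to cells in 96-well plates for 48 hours at 5 doses. The concentration for 50% growth inhibition is given as GI50.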 The source made the active and inactive calls. Cut-off read from the data, not from the text of the source: active = GI50 up to about 1.1 µM and inactive = higher.

Legend:
Assay in all cases: NCI anticancer screen, dose series, 48 h
COLO 205 = tested on: COLO 205
RXF 393 = tested on: RXF 393
HCC 2998 = tested on: HCC 2998
LOX IMVI = tested on: LOX IMVI
OVCAR-4 = tested on: OVCAR-4
OVCAR-8 = tested on: OVCAR-8
NCI-H23 = tested on: NCI-H23
UO-31 = tested on: UO-31
NCI-H226 = tested on: NCI-H226
M14 = tested on: M14
UACC-257 = tested on: UACC-257
TK-10 = tested on: TK-10
ACHN = tested on: ACHN
U-251 = tested on: U-251
SF-268 = tested on: SF-268
KM12 = tested on: KM12
CAKI-1 = tested on: CAKI-1
SR = tested on: SR
SW-620 = tested on: SW-620

SMILES	GI50 (COLO 205)	GI50 (RXF 393)	GI50 (HCC 2998)	GI50 (LOX IMVI)	GI50 (OVCAR-4)	GI50 (OVCAR-8)	GI50 (NCI-H23)	GI50 (UO-31)	GI50 (NCI-H226)	GI50 (M14)	GI50 (UACC-257)	GI50 (TK-10)	GI50 (ACHN)	GI50 (U-251)	GI50 (SF-268)	GI50 (KM12)	GI50 (CAKI-1)	GI50 (SR)	GI50 (SW-620)
O=[N+]([O-])c1ccc(/C=N/C23CC4CC(CC(C4)C2)C3)cc1	> 100 µM (inactive)	> 100 µM (inactive)	> 100 µM (inactive)	85.7 µM (inactive)	> 100 µM (inactive)	> 100 µM (inactive)	> 100 µM (inactive)	> 100 µM (inactive)	> 100 µM (inactive)	> 100 µM (inactive)	> 100 µM (inactive)	> 100 µM (inactive)	> 100 µM (inactive)	> 100 µM (inactive)	> 100 µM (inactive)	> 100 µM (inactive)	> 100 µM (inactive)	–	–
CN(C)/C=C/C(=O)c1cccc(C(=O)/C=C/N(C)C)n1	> 100 µM (inactive)	> 100 µM (inactive)	> 100 µM (inactive)	> 100 µM (inactive)	> 100 µM (inactive)	80.4 µM (inactive)	> 100 µM (inactive)	> 100 µM (inactive)	> 100 µM (inactive)	> 100 µM (inactive)	> 100 µM (inactive)	> 100 µM (inactive)	> 100 µM (inactive)	> 100 µM (inactive)	> 100 µM (inactive)	> 100 µM (inactive)	–	> 100 µM (inactive)	> 100 µM (inactive)
CC(C)=CC(=O)OC1C2C(C)=CC(=O)C(O)C2(C)C2C3(O)OCC24C(CC(=O)OC14)C(C)C3O (stereo not drawn)	0.0975 µM (active)	0.0149 µM (active)	0.0128 µM (active)	0.0015 µM (active)	0.0135 µM (active)	0.017 µM (active)	0.00655 µM (active)	0.203 µM (active)	0.00984 µM (active)	0.0023 µM (active)	0.0113 µM (active)	0.0216 µM (active)	0.022 µM (active)	0.00324 µM (active)	0.029 µM (active)	0.0139 µM (active)	–	0.000774 µM (active)	0.00822 µM (active)
CC1=NN(C(=O)Cc2ccccc2)C(=O)/C1=C\c1ccc([N+](=O)[O-])cc1	> 100 µM (inactive)	> 100 µM (inactive)	> 100 µM (inactive)	> 100 µM (inactive)	> 100 µM (inactive)	> 100 µM (inactive)	> 100 µM (inactive)	> 100 µM (inactive)	> 100 µM (inactive)	> 100 µM (inactive)	> 100 µM (inactive)	> 100 µM (inactive)	> 100 µM (inactive)	> 100 µM (inactive)	> 100 µM (inactive)	> 100 µM (inactive)	> 100 µM (inactive)	–	> 100 µM (inactive)
O=c1c2ccccc2nc(-c2cccc(Cl)c2)n1NCC1(O)OCC(O)C(O)C1O (stereo not drawn)	> 100 µM (inactive)	51.9 µM (inactive)	–	> 100 µM (inactive)	> 100 µM (inactive)	> 100 µM (inactive)	> 100 µM (inactive)	> 100 µM (inactive)	> 100 µM (inactive)	> 100 µM (inactive)	> 100 µM (inactive)	–	> 100 µM (inactive)	> 100 µM (inactive)	> 100 µM (inactive)	> 100 µM (inactive)	> 100 µM (inactive)	43.9 µM (inactive)	> 100 µM (inactive)
CCOC(=O)CC(C)C1(C(=O)OCC)CCCCC1=O (stereo not drawn)	86.7 µM (inactive)	> 100 µM (inactive)	> 100 µM (inactive)	67.3 µM (inactive)	> 100 µM (inactive)	> 100 µM (inactive)	–	> 100 µM (inactive)	> 100 µM (inactive)	> 100 µM (inactive)	> 100 µM (inactive)	> 100 µM (inactive)	> 100 µM (inactive)	> 100 µM (inactive)	> 100 µM (inactive)	> 100 µM (inactive)	> 100 µM (inactive)	25.6 µM (inactive)	–
NC1=C(O)c2cccc3cccc(c23)C1=O	> 100 µM (inactive)	> 100 µM (inactive)	> 100 µM (inactive)	> 100 µM (inactive)	> 100 µM (inactive)	> 100 µM (inactive)	> 100 µM (inactive)	51.6 µM (inactive)	35.9 µM (inactive)	> 100 µM (inactive)	> 100 µM (inactive)	> 100 µM (inactive)	> 100 µM (inactive)	> 100 µM (inactive)	> 100 µM (inactive)	> 100 µM (inactive)	> 100 µM (inactive)	–	> 100 µM (inactive)
COC(=O)N/N=C(/CCC(=O)Nc1ccc(C)c(C)c1)CC(=O)C(C)(C)C	> 100 µM (inactive)	> 100 µM (inactive)	> 100 µM (inactive)	> 100 µM (inactive)	> 100 µM (inactive)	> 100 µM (inactive)	> 100 µM (inactive)	> 100 µM (inactive)	> 100 µM (inactive)	> 100 µM (inactive)	> 100 µM (inactive)	> 100 µM (inactive)	> 100 µM (inactive)	> 100 µM (inactive)	> 100 µM (inactive)	> 100 µM (inactive)	> 100 µM (inactive)	–	> 100 µM (inactive)
CCOC(=O)c1[nH]c(COC(C)=O)c(CCCOC(C)=O)c1CCCOC(C)=O	> 100 µM (inactive)	> 100 µM (inactive)	> 100 µM (inactive)	> 100 µM (inactive)	> 100 µM (inactive)	> 100 µM (inactive)	> 100 µM (inactive)	–	> 100 µM (inactive)	–	> 100 µM (inactive)	> 100 µM (inactive)	> 100 µM (inactive)	> 100 µM (inactive)	> 100 µM (inactive)	> 100 µM (inactive)	> 100 µM (inactive)	> 100 µM (inactive)	> 100 µM (inactive)
Cc1cc2c(cc1C)[n+]([O-])c(C(=O)C/C(=N/NC(=S)NN)C(=O)Nc1cccc(C(F)(F)F)c1)c[n+]2[O-]	> 100 µM (inactive)	–	> 100 µM (inactive)	–	> 100 µM (inactive)	> 100 µM (inactive)	> 100 µM (inactive)	> 100 µM (inactive)	> 100 µM (inactive)	> 100 µM (inactive)	> 100 µM (inactive)	> 100 µM (inactive)	> 100 µM (inactive)	> 100 µM (inactive)	> 100 µM (inactive)	> 100 µM (inactive)	> 100 µM (inactive)	65.6 µM (inactive)	> 100 µM (inactive)
OCc1cc2c(cn1)[nH]c1ccc(NCc3ccccc3)cc12	17.7 µM (inactive)	20.3 µM (inactive)	24.8 µM (inactive)	28.4 µM (inactive)	26.5 µM (inactive)	29.4 µM (inactive)	20 µM (inactive)	20.7 µM (inactive)	19.1 µM (inactive)	16.4 µM (inactive)	23.3 µM (inactive)	30.6 µM (inactive)	20 µM (inactive)	38.9 µM (inactive)	20.5 µM (inactive)	18.6 µM (inactive)	27.4 µM (inactive)	–	27.4 µM (inactive)
O=C1OC(c2ccccc2)=N/C1=C/NC(Cc1ccccc1)C(=O)O (stereo not drawn)	> 100 µM (inactive)	> 100 µM (inactive)	> 100 µM (inactive)	> 100 µM (inactive)	> 100 µM (inactive)	> 100 µM (inactive)	> 100 µM (inactive)	> 100 µM (inactive)	> 100 µM (inactive)	> 100 µM (inactive)	> 100 µM (inactive)	> 100 µM (inactive)	> 100 µM (inactive)	> 100 µM (inactive)	> 100 µM (inactive)	> 100 µM (inactive)	> 100 µM (inactive)	> 100 µM (inactive)	> 100 µM (inactive)
Cc1n[nH]c(=O)n1/N=C/c1ccncc1	> 100 µM (inactive)	> 100 µM (inactive)	> 100 µM (inactive)	> 100 µM (inactive)	> 100 µM (inactive)	> 100 µM (inactive)	> 100 µM (inactive)	> 100 µM (inactive)	> 100 µM (inactive)	> 100 µM (inactive)	> 100 µM (inactive)	> 100 µM (inactive)	> 100 µM (inactive)	> 100 µM (inactive)	> 100 µM (inactive)	> 100 µM (inactive)	> 100 µM (inactive)	–	> 100 µM (inactive)
Clc1ccccc1C1N2CCCCC2[C@@H]2c3[nH]c4ccccc4c3CCN12 (stereo partly drawn)	19.3 µM (inactive)	22 µM (inactive)	18.6 µM (inactive)	–	19.1 µM (inactive)	19.8 µM (inactive)	23.6 µM (inactive)	19.5 µM (inactive)	–	17.3 µM (inactive)	18.7 µM (inactive)	23.8 µM (inactive)	16.2 µM (inactive)	17.7 µM (inactive)	17.9 µM (inactive)	–	> 10 µM (inactive)	–	17.3 µM (inactive)
Nc1nc2c(ncn2CC(CO)CC(c2ccccc2)P(=O)(O)O)c(=O)[nH]1 (stereo not drawn)	> 100 µM (inactive)	> 100 µM (inactive)	> 100 µM (inactive)	> 100 µM (inactive)	–	> 100 µM (inactive)	> 100 µM (inactive)	> 100 µM (inactive)	> 100 µM (inactive)	> 100 µM (inactive)	> 100 µM (inactive)	> 100 µM (inactive)	> 100 µM (inactive)	> 100 µM (inactive)	> 100 µM (inactive)	> 100 µM (inactive)	> 100 µM (inactive)	> 100 µM (inactive)	> 100 µM (inactive)
